Series [1] in a line: Sink in vitro dissolution test of flubendazole samples in 0.1 M HCl. It is filed as physicochemical. Particulars: after 10 minutes, sample containing 50 mg flubendazole in 900 ml 0.1 M HCl.
Protocol: Samples were filtered through a 0.45 μm PTFE filter, diluted and consequently measured via UV-Vis spectroscopy. Experiments were performed in triplicate.
The nature of series [2]: In vivo bioavailability study, oral capsules, plasma levels by LC-MS. Particulars: dog; analyte Flu in plasma; oral capsule with 200 mg Flu, fasted Beagle dogs, n=5. How it is done: Capsules of a 00 size were filled with either 50 wt % Flu-PEtOx nanofibrous material or with pure crystalline Flu. Each capsule contained 200 mg of Flu. These capsules were administered to beagles in 2 different sessions with at least 8 days in between both sessions. The study was approved by the ethical commission for animal testing at Ghent University. Before the dogs were fed the capsules, a fasting time of 12 hours was set. Using an intravenous catheter in the vena cephalica blood samples of 3 ml were collected at different time intervalls of 0.5, 1, 2, 4, 6, 8, 12, 16, 20 and 24 hours after administration. Plasma samples were stored at −20° C. until analyzed using an LC-MS method.
A […] flubendazole nanofibrous amorphous solid dispersion was obtained by the solution electrospinning of PEtOx and Flu in a formic acid solvent system. The process conditions were a tip to collector distance of 15 cm, a flow rate of 0.12 ml/h and a voltage of 27.5 kV. Note that this high flubendazole loading was only reached when a PEtOx wt % was used which is lower compared to the minimal required polymer concentration for solution electrospinning pure PEtOx, as shown in Example 4. […] Concentrations of Flu and its two metabolites, H-Flu and R-Flu, were monitored.

A word on the Cmax: it is the maximum level reached in the sampled fluid or tissue. One may read the Tmax as the time at which the peak concentration occurs.

As for `COC(=O)Nc1nc2cc(C(=O)c3ccc(F)cc3)ccc2[nH]1` [Flu, Flubendazole], the “Dissolution rate (10 min)” value in series [1] is 0.07 ± 0.03 µg/mL/min. In addition, in series [2], the Cmax came to 1.2 ± 0.4 ng/mL and the Tmax was determined as 1 ± 0.6 h.

The values above are taken from patent US20250051519A1, “SOLUTION ELECTROSPUN FIBERS, COMPOSITIONS COMPRISING THE SAME AND A PROCESS OF MANUFACTURING THEREOF” (UNIVERSITEIT GENT, priority 2021, published 2025).
